According to patent US10167272B2, “Muscarinic agonists” (Heptares Therapeutics Limited, priority 2015, dated 2019):
Read-outs that look alike come from different tables or passages of the source.

Columns and labels:
[1] = biological target: T1, human muscarinic M4 receptor (Homo sapiens, UniProt P08173); experiment: Alphascreen Surefire phospho-ERK1/2 functional assay, M4; format: cell-based; settings: for EC50: read-out: pEC50 M4 (converted); for Emax: CHO
T1 construct: expressed in transfected cells
T1 sequence (P08173 1-479): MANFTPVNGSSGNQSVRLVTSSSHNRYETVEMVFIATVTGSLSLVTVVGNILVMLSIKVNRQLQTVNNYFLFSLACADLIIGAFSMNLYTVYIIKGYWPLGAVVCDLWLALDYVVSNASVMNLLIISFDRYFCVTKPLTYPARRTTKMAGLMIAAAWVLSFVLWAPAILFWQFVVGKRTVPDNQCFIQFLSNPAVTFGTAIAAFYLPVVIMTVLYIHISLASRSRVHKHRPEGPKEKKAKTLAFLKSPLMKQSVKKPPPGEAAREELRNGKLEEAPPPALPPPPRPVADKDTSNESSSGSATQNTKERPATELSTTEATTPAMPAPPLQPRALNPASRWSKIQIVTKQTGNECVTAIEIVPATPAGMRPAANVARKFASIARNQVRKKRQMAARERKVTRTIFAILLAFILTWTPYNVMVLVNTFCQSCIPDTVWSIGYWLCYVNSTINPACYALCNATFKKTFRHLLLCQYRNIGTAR

[2] = biological target: T2, human muscarinic M1 receptor (Homo sapiens, UniProt P11229); experiment: Alphascreen Surefire phospho-ERK1/2 functional assay, M1; format: cell-based; settings: for EC50: read-out: pEC50 M1 (converted); for Emax: CHO
T2 sequence (P11229 1-460): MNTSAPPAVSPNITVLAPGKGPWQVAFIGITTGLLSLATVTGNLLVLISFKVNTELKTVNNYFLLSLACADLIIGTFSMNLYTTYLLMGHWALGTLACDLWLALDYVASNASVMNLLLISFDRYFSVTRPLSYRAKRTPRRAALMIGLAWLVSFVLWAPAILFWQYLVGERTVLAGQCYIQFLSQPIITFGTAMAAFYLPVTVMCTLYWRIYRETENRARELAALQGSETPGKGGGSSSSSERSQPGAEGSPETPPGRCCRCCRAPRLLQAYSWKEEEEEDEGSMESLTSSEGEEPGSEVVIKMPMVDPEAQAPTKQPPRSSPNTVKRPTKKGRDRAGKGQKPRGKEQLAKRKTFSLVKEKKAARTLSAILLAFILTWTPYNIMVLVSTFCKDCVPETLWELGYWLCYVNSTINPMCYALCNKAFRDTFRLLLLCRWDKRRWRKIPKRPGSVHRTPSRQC
Description: ERK1/2 phosphorylation is a downstream consequence of both Gq/11 and Gi/o protein coupled receptor activation, making it highly suitable for the assessment of M1, M3 (Gq/11 coupled) and M2, M4 receptors (Gi/o coupled), rather than using different assay formats for different receptor subtypes. CHO cells stably expressing the human muscarinic M1, M2, M3 or M4 receptor were plated (25K/well) onto 96-well tissue culture plates in MEM-alpha+10% dialysed FBS. Once adhered, cells were serum-starved overnight. Agonist stimulation was performed by the addition of 5 μL agonist to the cells for 5 min (37° C.). Media was removed and 50 μL of lysis buffer added. After 15 min, a 4 μL sample was transferred to 384-well plate and 7 μL of detection mixture added.

[3] = CHO cells stably expressing human M4, phospho-ERK1/2
[4] = CHO cells stably expressing human M4, phospho-ERK1/2, relative to ACh
[5] = CHO cells stably expressing human M1, phospho-ERK1/2
[6] = read-out: % Emax cf. ACh (M1), CHO cells stably expressing human M1, phospho-ERK1/2, relative to ACh
[7] = CHO cells stably expressing human M1, phospho-ERK1/2, relative to ACh
[8] = read-out: % Emax cf. ACh (M4), CHO cells stably expressing human M4, phospho-ERK1/2, relative to ACh

Compound | EC50 [1, 3] | % Emax cf. ACh (M4) [1, 4] | EC50 [2, 5] | Emax [2, 6] | pEC50 M4 [1, 3] | pEC50 M1 [2, 5] | % Emax cf. ACh (M1) [2, 7] | Emax [1, 8] | Emax ([1]; read-out: % Emax cf. ACh (M4)) | Emax ([2]; read-out: % Emax cf. ACh (M1))
CCCN(C(C)=O)C1CCN(C2CC3(CCN(C(=O)OCC)C3)C2)CC1 (single isomer, unassigned) [2-18 Isomer 2] | 200 nM | – | 2000 nM | 89% | – | – | – | 107% | – | –
CCOC(=O)N1CCC2(CC(N3CCC(N(CC(C)C)C(C)=O)CC3)C2)C1 (single isomer, unassigned) [2-19 Isomer 1] | 251 nM | 62% | 1260 nM | – | – | – | 32% | – | – | –
CCOC(=O)N1CCC2(CC(N3CCC(N(CC4(C)COC4)C(C)=O)CC3)C2)C1 (single isomer, unassigned) [2-23 Isomer 2] | 631 nM | – | 1260 nM | 43% | – | – | – | 65% | – | –
CCOC(=O)N1CCC2(CC(N3CCC(N(CC(F)(F)F)C(C)=O)CC3)C2)C1 (single isomer, unassigned) [2-25 Isomer 2] | 100 nM | – | 3980 nM | 125% | – | – | – | 101% | – | –
CCOC(=O)N1CCC2(CC(N3CCC(N(CC(C)(C)F)C(C)=O)CC3)C2)C1 (single isomer, unassigned) [2-26 Isomer 1] | 1000 nM | 52% | > 20000 nM | – | – | – | 23% | – | – | –
CCOC(=O)N1CCC2(CC(N3CCC(N(CC(C)(C)F)C(C)=O)CC3)C2)C1 (single isomer, unassigned) [2-26 Isomer 2] | 63.1 nM | 114% | 398 nM | – | – | – | 109% | – | – | –
CCOC(=O)N1CCC2(CC(N3CCC(N(CC(C)(F)F)C(C)=O)CC3)C2)C1 (single isomer, unassigned) [2-27 Isomer 2] | 79.4 nM | – | 631 nM | 108% | – | – | – | 105% | – | –
CCOC(=O)N1CCC2(CC(N3CCC(N(CC(C)(C)OC)C(C)=O)CC3)C2)C1 (single isomer, unassigned) [2-29 Isomer 1] | 1260 nM | 56% | > 20000 nM | – | – | – | 17% | – | – | –
CCOC(=O)N1CCC2(CC(N3CCC(N(Cc4cnco4)C(C)=O)CC3)C2)C1 (single isomer, unassigned) [2-36 Isomer 2] | 631 nM | – | 2510 nM | 45% | – | – | – | 71% | – | –
CCOC(=O)N1CCC2(CC(N3CCC(N(Cc4ncco4)C(C)=O)CC3)C2)C1 (single isomer, unassigned) [2-37 Isomer 2] | 631 nM | – | 1260 nM | 26% | – | – | – | 55% | – | –
CCOC(=O)N1CCC2(CC(N3CCC(N(CC(F)(F)F)C(=O)OCCOC)CC3)C2)C1 (single isomer, unassigned) [2-43 Isomer 2] | 126 nM | – | 2510 nM | 35% | – | – | – | 91% | – | –
CCOC(=O)N1CCC2(CC(N3CCC(N(CCO)C4CC4)CC3)C2)C1 (single isomer, unassigned) [2-49 Isomer 2] | 1260 nM | – | > 20000 nM | 8% | – | – | – | 78% | – | –
CCOC(=O)N1CCC2(CC(N3CCC(N(CC)C4COC4)CC3)C2)C1 (single isomer, unassigned) [2-53 Isomer 2] | 251 nM | – | > 20000 nM | 42% | – | – | – | 62% | – | –
CCOC(=O)N1CCC2(CC(N3CCC(N(CC)CCS(C)(=O)=O)CC3)C2)C1 (single isomer, unassigned) [2-56 Isomer 2] | 1260 nM | – | > 20000 nM | 7% | – | – | – | 41% | – | –
CCOC(=O)N1CCC2(CC(N3CCC(N(CCO)c4ccccc4)CC3)C2)C1 (single isomer, unassigned) [2-58 Isomer 2] | 251 nM | – | 1260 nM | – | – | – | – | – | 74% | 63%
CCOC(=O)N1CCC2(CC(N3CCC(C(C)n4cccn4)CC3)C2)C1 (single isomer, unassigned) [2-65 Isomer 1a] | > 20000 nM | 14% | 7940 nM | 45% | – | – | – | – | – | –
CCOC(=O)N1CCC2(CC(N3CCC(N(CC)C(=O)N(C)C)CC3)C2)C1 (single isomer, unassigned) [Example 2-44 Isomer 2] | 398 nM | – | 2510 nM | 55% | – | – | – | 80% | – | –

The next lines start with results.

EC50 [1, 3] | % Emax cf. ACh (M4) [1, 4] | EC50 [2, 5] | Emax [2, 6] | pEC50 M4 [1, 3] | pEC50 M1 [2, 5] | % Emax cf. ACh (M1) [2, 7] | Emax [1, 8] | Compound | Emax ([1]; read-out: % Emax cf. ACh (M4)) | Emax ([2]; read-out: % Emax cf. ACh (M1))
> 20000 nM | 13% | 2000 nM | 78% | – | – | – | – | CCOC(=O)N1CCC2(CC(N3CCC(N(C(C)=O)C4CC4)CC3)C2)C1 (single isomer, unassigned) [2-3 Isomer 1] | – | –
– | 41% | – | – | 6.7 | < 4.7 | 6% | – | CCOC(=O)N1CCC2(CC(N3CCC(CN(C(C)=O)C4CC4)CC3)C2)C1 (single isomer, unassigned) [2-12 Isomer 2] | – | –
200 nM | – | 501 nM | 117% | – | – | – | 95% | COC(=O)N1CCC2(CC(N3CCC(N(C(C)=O)C4CCC4)CC3)C2)C1 (single isomer, unassigned) [2-15 Isomer 2] | – | –
1260 nM | – | > 20000 nM | – | – | – | 27% | 87% | CCN(C(C)=O)C1CCN(C2CC3(CCN(C(=O)OC)C3)C2)CC1 (single isomer, unassigned) [2-17 Isomer 1] | – | –
200 nM | 92% | 1260 nM | – | – | – | 80% | – | CCN(C(C)=O)C1CCN(C2CC3(CCN(C(=O)OC)C3)C2)CC1 (single isomer, unassigned) [2-17 Isomer 2] | – | –
1000 nM | 36% | > 20000 nM | – | – | – | 17% | – | CCOC(=O)N1CCC2(CC(N3CCC(N(CC4CC4)C(C)=O)CC3)C2)C1 (single isomer, unassigned) [2-20 Isomer 1] | – | –
316 nM | – | 15800 nM | – | – | – | 51% | – | CCOC(=O)N1CCC2(CC(N3CCC(N(CC4(C)CCC4)C(C)=O)CC3)C2)C1 (single isomer, unassigned) [2-21 Isomer 1] | – | –
79.4 nM | – | 316 nM | 132% | – | – | – | 139% | CCOC(=O)N1CCC2(CC(N3CCC(N(C(C)=O)C4(C)CCC4)CC3)C2)C1 (single isomer, unassigned) [2-22 Isomer 2] | – | –
251 nM | – | 158 nM | 124% | – | – | – | 80% | CCOC(=O)N1CCC2(CC(N3CCC(N(C(C)=O)C4CC(F)(F)C4)CC3)C2)C1 (single isomer, unassigned) [2-28 Isomer 2] | – | –
126 nM | 59% | 1260 nM | – | – | – | 33% | – | CCOC(=O)N1CCC2(CC(N3CCC(N(CC4(OC)CCC4)C(C)=O)CC3)C2)C1 (single isomer, unassigned) [2-30 Isomer 1] | – | –
200 nM | 62% | 3980 nM | – | – | – | 27% | – | CCOC(=O)N1CCC2(CC(N3CCC(N(CC4(O)CCC4)C(C)=O)CC3)C2)C1 (single isomer, unassigned) [2-31 Isomer 1] | – | –
39.8 nM | 95% | 398 nM | – | – | – | 78% | – | CCOC(=O)N1CCC2(CC(N3CCC(N(CC4(O)CCC4)C(C)=O)CC3)C2)C1 (single isomer, unassigned) [2-31 Isomer 2] | – | –
251 nM | – | > 20000 nM | 17% | – | – | – | 70% | CCOC(=O)N1CCC2(CC(N3CCC(N(CCO)C4CCC4)CC3)C2)C1 (single isomer, unassigned) [2-50 Isomer 2] | – | –
316 nM | – | 2510 nM | 72% | – | – | – | 77% | CCOC(=O)N1CC2(CC(N3CCC(N(C(C)=O)C4CC4)CC3)C2)C1 [Example 1-1] | – | –
